Legend:
Assay in all cases: Histone peptide microarray
Assay type in all cases: binding, human
AIRE (PP) = details: GST-tagged AIRE (PP); for Array Heatmap signal, AIRE (PP): histone peptide array, arrays performed twice, n of 4
Outline: (§1)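 GST-PHD reader, 0.5 μM, probed on 293-peptide histone array (single/combinatorial PTMs); optimized array protocol; signal = mean ± SD, n = 4.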

BAZ2B = details: GST-tagged BAZ2B; for Array Heatmap signal, BAZ2B: histone peptide array, arrays performed twice, n of 4
Outline: as §1

BPTF (PB) = details: GST-tagged BPTF (PB = PHD + Bromodomain); for Array Heatmap signal, BPTF (PB): histone peptide array, arrays performed twice, n of 4
Outline: as §1

CHD4 (PPCC) = details: GST-tagged CHD4 (PPCC = Dual PHD + Dual Chromodomain); for Array Heatmap signal, CHD4 (PPCC): histone peptide array, arrays performed twice, n of 4
Outline: as §1

CHD5 (PCC) = details: GST-tagged CHD5 (PCC = PHD + Dual Chromodomain); for Array Heatmap signal, CHD5 (PCC): histone peptide array, arrays performed twice, n of 4
Outline: as §1

CHD5 (PPCC) = details: GST-tagged CHD5 (PPCC = Dual PHD + Dual Chromodomain); for Array Heatmap signal, CHD5 (PPCC): histone peptide array, arrays performed twice, n of 4
Outline: as §1

DIDO1 = details: GST-tagged DIDO1; for Array Heatmap signal, DIDO1: histone peptide array, arrays performed twice, n of 4
Outline: as §1

DPF2 (PPC2W2) = details: GST-tagged DPF2 (PPC2W2 = Dual PHD + C2W2-type Zn-finger); for Array Heatmap signal, DPF2 (PPC2W2): histone peptide array, arrays performed twice, n of 4
Outline: as §1

ING1 = details: GST-tagged ING1; for Array Heatmap signal, ING1: histone peptide array, arrays performed twice, n of 4
Outline: as §1

ING2 = details: GST-tagged ING2; for Array Heatmap signal, ING2: histone peptide array, arrays performed twice, n of 4
Outline: as §1

ING3 = details: GST-tagged ING3; for Array Heatmap signal, ING3: histone peptide array, arrays performed twice, n of 4
Outline: as §1

ING4 = details: GST-tagged ING4; for Array Heatmap signal, ING4: histone peptide array, arrays performed twice, n of 4
Outline: as §1

ING5 = details: GST-tagged ING5; for Array Heatmap signal, ING5: histone peptide array, arrays performed twice, n of 4
Outline: as §1

KDM4C (TTP) = details: GST-tagged KDM4C (TTP = Tandem Tudor domain + PHD); for Array Heatmap signal, KDM4C (TTP): histone peptide array, arrays performed twice, n of 4
Outline: as §1

KDM5A (1) = details: GST-tagged KDM5A (1); for Array Heatmap signal, KDM5A (1): histone peptide array, arrays performed twice, n of 4
Outline: as §1

KDM5A (3) = details: GST-tagged KDM5A (3); for Array Heatmap signal, KDM5A (3): histone peptide array, arrays performed twice, n of 4
Outline: as §1

KDM5B (1) = details: GST-tagged KDM5B (1); for Array Heatmap signal, KDM5B (1): histone peptide array, arrays performed twice, n of 4
Outline: as §1

KDM5B (3) = details: GST-tagged KDM5B (3); for Array Heatmap signal, KDM5B (3): histone peptide array, arrays performed twice, n of 4
Outline: as §1

KDM7A = details: GST-tagged KDM7A; for Array Heatmap signal, KDM7A: histone peptide array, arrays performed twice, n of 4
Outline: as §1

MLL5 = details: GST-tagged MLL5; for Array Heatmap signal, MLL5: histone peptide array, arrays performed twice, n of 4
Outline: as §1

MORC3 (CW) = details: GST-tagged MORC3 (CW = CW-type Zn-finger); for Array Heatmap signal, MORC3 (CW): histone peptide array, arrays performed twice, n of 4
Outline: as §1

PHF13 = details: GST-tagged PHF13; for Array Heatmap signal, PHF13: histone peptide array, arrays performed twice, n of 4
Outline: as §1

PHF21A = details: GST-tagged PHF21A; for Array Heatmap signal, PHF21A: histone peptide array, arrays performed twice, n of 4
Outline: as §1

PHF23 = details: GST-tagged PHF23; for Array Heatmap signal, PHF23: histone peptide array, arrays performed twice, n of 4
Outline: as §1

PHF2 = details: GST-tagged PHF2; for Array Heatmap signal, PHF2: histone peptide array, arrays performed twice, n of 4
Outline: as §1

PHF8 = details: GST-tagged PHF8; for Array Heatmap signal, PHF8: histone peptide array, arrays performed twice, n of 4
Outline: as §1

PHRF1 (RP) = details: GST-tagged PHRF1 (RP); for Array Heatmap signal, PHRF1 (RP): histone peptide array, arrays performed twice, n of 4
Outline: as §1

RAG2 = details: GST-tagged RAG2; for Array Heatmap signal, RAG2: histone peptide array, arrays performed twice, n of 4
Outline: as §1

SP140L = details: GST-tagged SP140L; for Array Heatmap signal, SP140L: histone peptide array, arrays performed twice, n of 4
Outline: as §1

TAF3 = details: GST-tagged TAF3; for Array Heatmap signal, TAF3: histone peptide array, arrays performed twice, n of 4
Outline: as §1

TRIM66 (PB) = details: GST-tagged TRIM66 (PB = PHD + Bromodomain); for Array Heatmap signal, TRIM66 (PB): histone peptide array, arrays performed twice, n of 4
Outline: as §1

[1] = sheet Array Heatmap, each array performed twice, total n = 4

H3K4ac + K9ac: H3 1-20
Array Heatmap signal (histone peptide microarray) (AIRE (PP); [1]): 0.5254
Array Heatmap signal (histone peptide microarray) (BAZ2B; [1]): 0.5296
Array Heatmap signal (histone peptide microarray) (BPTF (PB); [1]): 0.3822
Array Heatmap signal (histone peptide microarray) (CHD4 (PPCC); [1]): 0.558
Array Heatmap signal (histone peptide microarray) (CHD5 (PCC); [1]): 0.8893
Array Heatmap signal (histone peptide microarray) (CHD5 (PPCC); [1]): 0.5625
Array Heatmap signal (histone peptide microarray) (DIDO1; [1]): 0.6345
Array Heatmap signal (histone peptide microarray) (DPF2 (PPC2W2); [1]): 0.6975
Array Heatmap signal (histone peptide microarray) (ING1; [1]): 0.5202
Array Heatmap signal (histone peptide microarray) (ING2; [1]): 0.6174
Array Heatmap signal (histone peptide microarray) (ING3; [1]): 0.4596
Array Heatmap signal (histone peptide microarray) (ING4; [1]): 0.4565
Array Heatmap signal (histone peptide microarray) (ING5; [1]): 0.3535
Array Heatmap signal (histone peptide microarray) (KDM4C (TTP); [1]): 0.5223
Array Heatmap signal (histone peptide microarray) (KDM5A (1); [1]): 0.4969
Array Heatmap signal (histone peptide microarray) (KDM5A (3); [1]): 0.5679
Array Heatmap signal (histone peptide microarray) (KDM5B (1); [1]): 0.6807
Array Heatmap signal (histone peptide microarray) (KDM5B (3); [1]): 0.6207
Array Heatmap signal (histone peptide microarray) (KDM7A; [1]): 0.4244
Array Heatmap signal (histone peptide microarray) (MLL5; [1]): 0.5339
Array Heatmap signal (histone peptide microarray) (MORC3 (CW); [1]): 0.3754
Array Heatmap signal (histone peptide microarray) (PHF13; [1]): 0.5976
Array Heatmap signal (histone peptide microarray) (PHF21A; [1]): 0.4614
Array Heatmap signal (histone peptide microarray) (PHF23; [1]): 0.5225
Array Heatmap signal (histone peptide microarray) (PHF2; [1]): 0.54
Array Heatmap signal (histone peptide microarray) (PHF8; [1]): 0.3733
Array Heatmap signal (histone peptide microarray) (PHRF1 (RP); [1]): 0.6615
Array Heatmap signal (histone peptide microarray) (RAG2; [1]): 0.2758
Array Heatmap signal (histone peptide microarray) (SP140L; [1]): 0.3499
Array Heatmap signal (histone peptide microarray) (TAF3; [1]): 0.3083
Array Heatmap signal (histone peptide microarray) (TRIM66 (PB); [1]): 0.6641

H4S1p + R3me2a: H4 1-23
Array Heatmap signal, AIRE (PP) (AIRE (PP)): 0.6422
Array Heatmap signal, BAZ2B (BAZ2B): 0.5882
Array Heatmap signal, BPTF (PB) (BPTF (PB)): 0.4592
Array Heatmap signal, CHD4 (PPCC) (CHD4 (PPCC)): 0.6213
Array Heatmap signal, CHD5 (PCC) (CHD5 (PCC)): 0.908
Array Heatmap signal, CHD5 (PPCC) (CHD5 (PPCC)): 0.617
Array Heatmap signal, DIDO1 (DIDO1): 0.8161
Array Heatmap signal, DPF2 (PPC2W2) (DPF2 (PPC2W2)): 0.7324
Array Heatmap signal, ING1 (ING1): 0.5568
Array Heatmap signal, ING2 (ING2): 0.6378
Array Heatmap signal, ING3 (ING3): 0.5499
Array Heatmap signal, ING4 (ING4): 0.5743
Array Heatmap signal, ING5 (ING5): 0.4163
Array Heatmap signal, KDM4C (TTP) (KDM4C (TTP)): 0.5709
Array Heatmap signal, KDM5A (1) (KDM5A (1)): 0.5298
Array Heatmap signal, KDM5A (3) (KDM5A (3)): 0.5495
Array Heatmap signal, KDM5B (1) (KDM5B (1)): 0.7314
Array Heatmap signal, KDM5B (3) (KDM5B (3)): 0.6926
Array Heatmap signal, KDM7A (KDM7A): 0.485
Array Heatmap signal, MLL5 (MLL5): 0.6348
Array Heatmap signal, MORC3 (CW) (MORC3 (CW)): 0.5537
Array Heatmap signal, PHF13 (PHF13): 0.7049
Array Heatmap signal, PHF21A (PHF21A): 0.4964
Array Heatmap signal, PHF23 (PHF23): 0.6265
Array Heatmap signal, PHF2 (PHF2): 0.5511
Array Heatmap signal, PHF8 (PHF8): 0.44
Array Heatmap signal, PHRF1 (RP) (PHRF1 (RP)): 0.5062
Array Heatmap signal, RAG2 (RAG2): 0.4591
Array Heatmap signal, SP140L (SP140L): 0.4294
Array Heatmap signal, TAF3 (TAF3): 0.5622
Array Heatmap signal, TRIM66 (PB) (TRIM66 (PB)): 0.7721

H4R3me2s + K5ac + K8ac + K12ac + K16ac + K20ac: H4 1-23
Array Heatmap signal, AIRE (PP) (AIRE (PP)): 0.4445
Array Heatmap signal, BAZ2B (BAZ2B): 0.4891
Array Heatmap signal, BPTF (PB) (BPTF (PB)): 0.483
Array Heatmap signal, CHD4 (PPCC) (CHD4 (PPCC)): 0.5891
Array Heatmap signal, CHD5 (PCC) (CHD5 (PCC)): 0.7755
Array Heatmap signal, CHD5 (PPCC) (CHD5 (PPCC)): 0.5595
Array Heatmap signal, DIDO1 (DIDO1): 0.8519
Array Heatmap signal, DPF2 (PPC2W2) (DPF2 (PPC2W2)): 0.6954
Array Heatmap signal, ING1 (ING1): 0.5887
Array Heatmap signal, ING2 (ING2): 0.6618
Array Heatmap signal, ING3 (ING3): 0.4923
Array Heatmap signal, ING4 (ING4): 0.4768
Array Heatmap signal, ING5 (ING5): 0.3711
Array Heatmap signal, KDM4C (TTP) (KDM4C (TTP)): 0.4958
Array Heatmap signal, KDM5A (1) (KDM5A (1)): 0.4598
Array Heatmap signal, KDM5A (3) (KDM5A (3)): 0.5291
Array Heatmap signal, KDM5B (1) (KDM5B (1)): 0.6719
Array Heatmap signal, KDM5B (3) (KDM5B (3)): 0.4887
Array Heatmap signal, KDM7A (KDM7A): 0.3478
Array Heatmap signal, MLL5 (MLL5): 0.5888
Array Heatmap signal, MORC3 (CW) (MORC3 (CW)): 0.4281
Array Heatmap signal, PHF13 (PHF13): 0.6071
Array Heatmap signal, PHF21A (PHF21A): 0.4472
Array Heatmap signal, PHF23 (PHF23): 0.5758
Array Heatmap signal, PHF2 (PHF2): 0.6188
Array Heatmap signal, PHF8 (PHF8): 0.384
Array Heatmap signal, PHRF1 (RP) (PHRF1 (RP)): 0.4884
Array Heatmap signal, RAG2 (RAG2): 0.3093
Array Heatmap signal, SP140L (SP140L): 0.3449
Array Heatmap signal, TAF3 (TAF3): 0.282
Array Heatmap signal, TRIM66 (PB) (TRIM66 (PB)): 0.6231
